# Key:
# [1] = tested on: human breast epithelial cell line (MCF-7); experiment: In vitro cell proliferation assay (SRB), MCF-7; format: cell-based; details: MCF7, 72 h, mean ± S.D.
# Protocol: (§1) The cell proliferation assay was performed in 96-well plates as described previously. A panel of four cancer cell lines of different tissues of origins, namely: human lung adenocarcinoma epithelial cell line (A549), human lymphoblast cell line (CEM), human cervix cell line (HeLa) and human breast epithelial cell line (MCF-7) were studied. These cell lines were obtained from the National Repository of Animal Cell Culture, National Centre for Cell Sciences, Pune (NCCS), India. Briefly, 2 x10^3 cells were seeded in each well and were incubated with gradient concentrations of 5a, 6a-j compounds for 72 h. The cells were then fixed with 50% trichloroacetic acid and stained with 0.4% sulforhodamine B (SRB) dissolved in 1% acetic acid. Cells were then washed with1% acetic acid to remove excess (unbound) SRB. The protein-bound SRB was dissolved with 10 mM Tris base and the absorbance at 564 nm was determined using a SPECTRAmax PLUS 384 microplate spectrophotometer.
# [2] = biological target: T1, tubulin (Bos taurus, UniProt P81947+Q6B856); experiment: Tubulin binding assay (quenching of intrinsic tryptophan fluorescence); set-up: species or system bovine
# T1 construct: Tubulin devoid of microtubule-associated proteins (MAPs) was purified from bovine brain; from tissue; host or cells: bovine brain
# Protocol: Tubulin devoid of microtubule-associated proteins (MAPs) was purified from bovine brain by cycles of temperature-dependent polymerization and depolymerization as described previously followed by phosphocellulose chromatography. The concentration of the tubulin was determined by the method of Bradford using BSA as the standard. Purified tubulin was quickly frozen as drops in liquid nitrogen and stored at - 80 °C until used.
# Noscapinoids quench the […] intrinsic tryptophan fluorescence of tubulin in a concentration-dependent fashion as described previously. This has allowed an easy method for measuring the tubulin-noscapinoids interactions. Briefly, the compounds 5a, 6a-j (0-200 µM) were incubated with 2 µM tubulin in PEM buffer (100 mM PIPES, pH 6.8, 3 mM MgSO4, and 1 mM EGTA) at 37 °C for 45 min. After incubation, the samples were excited at 295 nm. The relative intrinsic fluorescence intensity of the tubulin was then monitored in the absence and presence of the compound 5a, 6a-j using a Varian Cary Eclipse Fluorescence Spectrophotometer (Agilent Technologies, CA, USA). The emission readings were recorded at 335 nm. We used a 0.3 cm path-length cuvette to minimize the inner filter effects caused by the absorbance of the noscapinoids. In addition, the inner filter effects were corrected using a formula F corrected = F observed·antilog [(A ex + A em)/2], where A ex is the absorbance at the excitation wavelength and A em is the absorbance at the emission wavelength. The equilibrium dissociation constant (KD) was determined by the formula: 1/a = KD/[free ligand] + 1, where a is the fractional occupancy and [free ligand] is the concentration of free ligand. The fractional occupancy (a) was determined by the formula a = ΔF/ΔF max, where ΔF is the change in fluorescence intensity when tubulin and its ligand are in equilibrium and ΔF max is the value of maximum fluorescence change when tubulin is completely bound with its ligand. ΔF max was calculated by plotting 1/ΔF versus 1/ligand, using total ligand concentration as the first estimate of free ligand concentration. Three independent experiments were performed for each noscapinoid.
# [3] = tested on: human cervix cell line (HeLa); experiment: In vitro cell proliferation assay (SRB), HeLa; format: cell-based; details: 72 h, mean ± S.D.
# Protocol: as §1
# [4] = tested on: human lung adenocarcinoma epithelial cell line (A549); experiment: In vitro cell proliferation assay (SRB), A549; format: cell-based; details: 72 h, mean ± S.D.
# Protocol: as §1
# [5] = tested on: cancer cells of different tissues of origin (CEM, HeLa, A549, MCF-7); experiment: In vitro cell proliferation assay (SRB), panel of four cancer cell lines; format: cell-based; details: Homo sapiens; range over cancer cells of different tissues of origin
# Protocol: as §1
# [6] = tested on: human lymphoblast cell line (CEM); experiment: In vitro cell proliferation assay (SRB), CEM; format: cell-based; details: 72 h, mean ± S.D.
# Protocol: as §1
# [7] = tested on: MCF-7 cells; experiment: Cell cycle analysis by flow cytometry (propidium iodide); format: cell-based, human; details: MCF-7, 25 µM
# Protocol: The flow cytometric evaluation of the cell cycle status was performed as described previously. Briefly, cells (2 x 10^6) treated with the noscapinoids up to 72 h were centrifuged, washed twice with cold PBS, and fixed in 70% ethanol. Tubes containing the cell pellets were stored at 4 °C for minimum of 24 h. Cells were then centrifuged at 1000 x g for 10 min and the supernatant was discarded. The pellets were washed twice with 5 ml of PBS and then stained with 0.5 ml of propidium iodide (0.1% of Pl + 0.6% Triton-X in PBS) and 0.5 ml of RNase A (2 mg/ml) for 45 minutes in dark. Samples were then analyzed on a FACS Calibur flow cytometer ([…]).
# T1 sequence (Q6B856 whole entry): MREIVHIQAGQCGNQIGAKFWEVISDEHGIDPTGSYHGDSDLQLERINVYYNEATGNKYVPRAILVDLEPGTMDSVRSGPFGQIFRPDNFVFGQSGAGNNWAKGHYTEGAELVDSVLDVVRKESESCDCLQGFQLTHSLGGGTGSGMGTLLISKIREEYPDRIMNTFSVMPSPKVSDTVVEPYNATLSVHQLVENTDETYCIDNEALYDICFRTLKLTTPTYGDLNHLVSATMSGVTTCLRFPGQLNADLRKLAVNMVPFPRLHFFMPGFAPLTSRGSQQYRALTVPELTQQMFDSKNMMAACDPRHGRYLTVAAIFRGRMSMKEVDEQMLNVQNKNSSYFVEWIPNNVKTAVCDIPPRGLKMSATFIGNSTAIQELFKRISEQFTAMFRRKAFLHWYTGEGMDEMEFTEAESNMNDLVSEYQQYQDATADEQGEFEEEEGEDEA
# T1 sequence (P81947 whole entry): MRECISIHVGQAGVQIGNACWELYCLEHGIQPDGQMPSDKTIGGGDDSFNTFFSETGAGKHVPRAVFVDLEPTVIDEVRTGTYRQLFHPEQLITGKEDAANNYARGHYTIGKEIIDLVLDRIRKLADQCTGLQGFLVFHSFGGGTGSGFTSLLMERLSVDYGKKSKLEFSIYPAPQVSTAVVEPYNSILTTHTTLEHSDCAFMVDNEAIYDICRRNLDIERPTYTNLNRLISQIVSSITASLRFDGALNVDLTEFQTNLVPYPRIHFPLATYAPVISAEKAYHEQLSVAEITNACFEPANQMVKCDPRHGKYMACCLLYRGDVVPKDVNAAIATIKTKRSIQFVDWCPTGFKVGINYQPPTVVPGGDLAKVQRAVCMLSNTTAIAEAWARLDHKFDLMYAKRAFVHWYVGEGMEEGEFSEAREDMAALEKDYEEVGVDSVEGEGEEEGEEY
structure (smiles),measurement,setting,value
"COc1ccc2c(c1OC)C(=O)O[C@@H]2[C@H]1c2c(cc3c(c2OC)OCO3)CCN1Cc1cccc(Br)c1 [Compound 6f, (S)-3-((R)-6-(3-bromobenzyl)-4-methoxy-5,6,7,8-tetrahydro-[1,3]dioxolo[4,5-g]isoquinolin-5-yl)-6,7-dimethoxyisobenzofuran-1(3H)-one]",IC50,[1],24.5 ± 0.8 µM
same,Kd,"[2]; 2 µM tubulin, PEM buffer pH 6.8, 37 °C, 45 min, mean ± S.D.",38 ± 4 µM
same,Experimental ΔGbind,"[2]; calculated from KD, ΔGbind = RT ln KD, T = 298 K",-6.036 kcal/mol
same,Tubulin binding affinity relative to the parent compound noscapine,[2]; ratio of KD values,~ 4.0 times
same,melting point,,65 °C
same,IC50,[3],15.3 ± 0.5 µM
same,IC50,[4],26.9 ± 1.4 µM
same,IC50,[5],6.7 to 26.9 µM
same,IC50,[6],6.7 ± 0.3 µM
same,"Cell cycle parameters % G0/G1, 24 hours",[7]; 24 hours,11.82%
same,"Cell cycle parameters % G2/M, 24 hours",[7]; 24 hours,67.48%
same,"Cell cycle parameters % S, 24 hours",[7]; 24 hours,6.29%
same,"Cell cycle parameters % Sub-G1, 24 hours",[7]; 24 hours,9.47%
same,"Cell cycle parameters % G0/G1, 72 hours",[7]; 72 hours,6.38%
same,"Cell cycle parameters % G2/M, 72 hours",[7]; 72 hours,37.29%
same,"Cell cycle parameters % S, 72 hours",[7]; 72 hours,4.72%
same,"Cell cycle parameters % Sub-G1, 72 hours",[7]; 72 hours,50.44%

# Reference: publication PMC3804772, “Rational Design, Synthesis, and Biological Evaluation of Third Generation α-Noscapine Analogues as Potent Tubulin Binding Anti-Cancer Agents” (PLoS ONE, 2013)
